From publication PMC10779222, “Copper(II) Complexes with 1-(Isoquinolin-3-yl)heteroalkyl-2-ones: Synthesis, Structure and Evaluation of Anticancer, Antimicrobial and Antioxidant Potential” (International Journal of Molecular Sciences, 2023) come the findings set out here.

The nature of assay [1]: DPPH radical scavenging assay. The note with it: ±SD; 30 min, room temperature. The protocol: The DPPH radical scavenging assay of samples was performed with ascorbic acid as a positive control. Briefly, 100 μL of different concentrations of the complexes, dissolved in DMSO, was mixed with 100 μL of 0.06 mM DPPH methanolic solution and incubated at room temperature in the dark for 30 min. The change in absorbance at λ = 517 nm was analyzed with the use of a 96-well microplate reader (Epoch, BioTek System, Winooski, VT, USA). The control was composed of DPPH and DMSO. DPPH inhibition was calculated according to the following equation:DPPH Inhibition (%) = [(Acontrol − Asample)/Acontrol] × 100% The radical scavenging activity of the samples was shown as the IC50 value (the concentration of the analyzed samples that caused a decrease in the non-reduced form of the DPPH radical by 50%).
Background: DPPH is a stable violet radical that fades when it is reduced.

The next assay concerns A375 (melanoma). Description: MTT cytotoxicity assay on A375 cells. It is filed as cell-based, human. Particulars: 24 h incubation. The protocol:
Cytotoxic activity of the investigated compounds was evaluated against T98G (glioblastoma), HepG2 (hepatoma), LS-180 (colon cancer) and A375 (melanoma) cell lines. Human normal skin fibroblasts, CCD-1059Sk (CRL-2072), were used as reference (non-cancerous) cells. All of the cell lines were obtained from American Type Culture Collection (ATCC; Manassas, VA, USA). A375, T98G and CCD-1059Sk cells were cultured in Dulbecco’s Modified Eagle’s Medium (DMEM) (Sigma Aldrich, St. Louis, MO, USA) supplemented with 10% FBS, penicillin (100 U/mL) and streptomycin (100 μg/mL). LS-180 and HepG2 cells were cultured in Eagle’s Minimum Essential Medium supplemented with 10% FBS, penicillin (100 U/mL) and streptomycin (100 μg/mL). All of the cells were maintained at 37 °C in a humidified atmosphere of 5% CO2. The compounds were dissolved in DMSO in order to obtain stock solutions. At the day of the experiment, the suspension of cells (1 × 10^5 cells/mL) was distributed onto 96-well plates at a volume of 100 μL/well. After attachment, the cells were treated with the increased concentrations of the tested compounds in medium containing 2% FBS and incubated for 24 h. Then, the medium was removed from wells, and cells were rinsed with PBS. Afterwards, 15 μL of MTT working solution (5 mg/mL in PBS) was added to each well, and the plates were incubated for 3 h. Subsequently, 100 μL of 10% SDS solution was added to each well in order to dissolve the precipitated formazan crystals. After overnight incubation at 37 °C, the absorbance of the obtained solution was measured at λ = 570 nm using a microplate reader (Epoch, BioTek Instruments, Inc., Winooski, VT, USA). At least two independent experiments were performed in triplicate. […] IC50 values of the investigated derivatives and positive control (etoposide) were calculated using the IC50 online calculator [101].
Background: Formazan colour is commonly taken as a measure of viable cells.

The nature of assay [2]: ABTS radical scavenging assay. Particulars: ±SD; 10 min, 30 °C. The procedure:
The ABTS radical scavenging assay of samples (ligands or complexes) was performed with ascorbic acid as a positive control. Briefly, 30 μL of different concentrations of the samples, dissolved in DMSO, was mixed with 170 μL of ABTS solution (2 mM ABTS diammonium salt, 3.5 mM potassium persulfate) and completed with water to a final volume of 300 μL. ABTS solution with DMSO was used as a control. […] ABTS inhibition was calculated according to the following equation:ABTS Inhibition (%) = [(Acontrol − Asample)/Acontrol] × 100% The radical scavenging activity of the samples was shown as the IC50 value (the concentration of the analyzed samples that caused a decrease in the non-reduced form of the ABTS radical by 50%).

`O=C1NCCN1c1cc2ccccc2cn1.O=C1NCCN1c1cc2ccccc2cn1.[Cl][Cu][Cl]` [C2, Dichloro{bis[1-(Isoquinolin-3-yl)imidazolidin-2-one]}copper(II)]: the “IC50 DPPH” value in assay [1] turned out to be 401.52 ± 2.48 µg/mL. The “IC50 ± SD, A375” value with A375 (melanoma) was 28.91 ± 1.79 µg/mL. The “IC50 ABTS” value in assay [2] stood at 107.14 ± 1.42 µg/mL.
